Tests used:
MRP1 = test: In-Cell Western analysis of MRP1 protein expression in U1 cells; assay type: cell-based; conditions: 24 hours; for change in MRP1 expression compared to control (in words): U1 cells; for MRP1 fluorescence signal intensity, mean (Fig 3B): relative response compared to vehicle controls, normalized to β-actin
Description: (§1) Detecting low levels of protein expression in native cells using traditional Western blotting can be difficult and therefore some studies successfully used In-Cell Western blotting (ICW) to quantify minor alterations in protein expression. We used manufacturer recommended (LI-COR Biosciences, NE) protocol in this study to perform ICW. U1 cells (0.03x10^6) were plated in sterile 96-well plates and differentiated with 100 nM PMA for 72 hours at 37°C in a humidified incubator while maintaining 5% CO2 air flow. On the day of treatment, each well was flushed with sterile PBS (250 μl) followed by addition of a 250 μl RPMI media containing various combinations of drugs previously mentioned. These plates were incubated for 24 hours prior to fixation. Medium from each well was removed by careful aspiration and cells were immediately fixed by addition of cold (-20°C) methanol (200 μl) followed by incubation of the plate at ambient temperature for 10 minutes with gentle shaking. Following incubation, methanol was carefully removed and wells were gently rinsed thrice with PBS (200 μl). After the last rinse, blocking was done by adding a 150 μl of Li-Cor blocking buffer and incubating the plate at room temperature with gentle shaking for 1.5 hours. Meanwhile, the primary antibodies were diluted in Li-Cor Odyssey blocking buffer using following dilutions: 3A4 (Rabbit Pab, Abcam # ab3572) 1: 200; MRP1 (mouse mab, Millipore # MAB4100) 1:50; MDR1(mouse mab, Millipore # MAB4334) 1:50; β-Actin (Mouse mAb Cell Signaling # 3700) 1:2000; β-Actin (Rabbit mAb Cell Signaling # 4970) 1:200. After blocking, 50 μl of desired antibody added to test wells and incubated overnight at 4°C with gentle shaking. On the following day, wells were washed five times with 200 μl PBS containing Tween-20 (0.1%) for 5 minutes at room temperature with gentle shaking. Secondary antibodies, goat anti-Mouse Mab (Li-Cor # 926–68170) and goat anti-Rabbit Mab (Li-Cor # 827–08365) were diluted in 1:1000 ratio in blocking buffer (0.2% -Tween-20, 0.01% SDS). After the final wash, wells were incubated with 50 μl of secondary antibody mixture for 1 hour in the dark at room temperature. After five washes, plates were scanned using Li-Cor Odyssey® SA and analyzed by using Image Studio V4.0 software (LI-COR Biosciences, NE). Background was subtracted from control wells and target protein signal intensities from triplicate wells were normalized to their respective β-actin intensities. Signal intensities were expressed as percent of relative responses (mean ± standard errors of mean) compared to vehicle controls.

MDR1 = test: In-Cell Western analysis of MDR1 protein expression in U1 cells; assay type: cell-based; conditions: 24 hours; for change in MDR1 expression compared to control (in words): U1 cells; for MDR1 fluorescence signal intensity, mean (Fig 3C): relative response compared to vehicle controls, normalized to β-actin
Description: as §1

HIV-1 replication = test: HIV p24 ELISA in culture medium of U1 cells (HIV replication); assay type: cell-based; conditions: 24 hours; for HIV p24 level in culture media, mean (Fig 2): percentage of vehicle control (100%), EVG 5 μM, COBI 2 μM, ethanol 20 mM; for effect on HIV p24 levels compared to control (in words): Fig 5; for HIV p24 level in culture media, mean (Fig 5): percentage of vehicle control, MK-571 50 μM, PSC-833 5 μM
Description: (§2) HIV-infected U937 cell line—the U1 cells were obtained through the NIH AIDS Reagent Program (Germantown, MD). U1 cells were cultured in Roswell Park Memorial Institute (RPMI) 1640 media (Corning Inc, Tewksbury, MA) supplemented with 10% fetal bovine serum (Atlanta biologicals, Atlanta, GA), 1% L-glutamine, nonessential amino acid solution, sodium bicarbonate, and penicillin-streptomycin solution. Cells were plated at 0.9x10^6 cells/well of 6-well plates and were differentiated into macrophages with 100 nM Phorbol 12-myristate 13-acetate (PMA) for 72 hours prior to treatment. On the day of experiment, medium was removed and cells were washed twice with PBS and treated with media containing clinically relevant concentrations of (a) EVG (5 μM), (b) EVG+COBI (2 μM), (c) EVG+ethanol (20 mM), (d) EVG+COBI+ethanol. Ethanol-treated plates were placed in an incubator that humidified with 20 mM ethanol to prevent any loss of ethanol due to evaporation.
(§3) At predetermined time points (0.5, 1, 3, 6, 12, and 24 hours), cells were collected for concentration-time profile experiments and medium was collected for HIV p24 measurement. At each time point, cells were washed twice with PBS and incubated with 400 μL of cold Radioimmunoprecipitation assay (RIPA) buffer for 10 minutes and the cell lysates were collected.
Influence of the combination of drugs on HIV replication was determined by measurement of HIV p24 levels in the cell culture medium. […] The concentration of p24 in the samples was quantitated by comparing with standards’ absorbance values and reported in percentage of control. The vehicle-treated samples were used as control and set as 100%.

CYP3A4 = test: In-Cell Western analysis of CYP3A4 protein expression in U1 cells; assay type: cell-based; conditions: 24 hours; for change in CYP3A4 expression compared to control (in words): U1 cells; for CYP3A4 fluorescence signal intensity, mean (Fig 3A): relative response compared to vehicle controls, normalized to β-actin
Description: as §1

U1 cells [1] = test: Intracellular elvitegravir concentration-time profile (cellular pharmacokinetics) in U1 cells, LC-MS/MS; assay type: in vitro ADME; conditions: for cellular EVG concentration, mean: U1 cells
Description: as §2, §3
(§4) A previously reported LC-MS/MS method was used to quantitate EVG in cell lysates, culture medium, and plasma samples used in this study. Calibrants (0.003, 0.006, 0.013, 0.025, 0.05, 0.1, 0.15, 0.25, 0.5, and 1 μM) were prepared by serial dilution approach with the corresponding working solutions. EVG extraction from the calibrants and study samples was performed by adding 3-volumes of cold acetonitrile which contained a 138 nM ritonavir (RTV) as internal standard (IS). All samples were centrifuged at 8000 rpm for 10 minutes at 4°C and clear supernatants were transferred into vails with low-volume inserts for LC-MS/MS analysis. Samples (5 μL) were injected onto a Waters Xterra® MS C18 Column (125Å, 3.5 μ, 4.6 X 50 mm) (Waters Corporation, Milford, MA) attached to a Shimadzu Nexera HPLC system coupled with a tandem mass spectrometer (Triple Quad 5500 from AB SCIEX, Framingham, MA) with electron spray ionization in positive mode. Data was acquired and analyzed with the Analyst software package (ver.1.6.2, AB SCIEX, Framingham, MA). Concentrations were quantified by the Quantitative Analysis module (Analyst ver 1.6.2, AB SCIEX, Framingham, MA) from a standard curve fitted with a linear-regression model with a weighting factor of 1/x^2.
(§5) The concentration-time profiles were analyzed by non-compartmental modeling using Phoenix WinNonlin 6.4 (Certara L.P., Princeton, NJ). Area under the curve (AUCtot) was calculated by the log trapezoidal rule by log-linear regression. The maximum concentration achieved (Cmax) and the time to maximum concentration (Tmax) were determined from the concentration-time profiles. Effect of ethanol on EVG AUCtot and Cmax were compared using unpaired t test with Welch's correction. Tmax values were compared using Wilcoxon rank-sum test. All other data involving more than two groups were compared by one way ANOVA and multiple comparisons were performed by Tukey’s post hoc test. ANOVA data was presented along with multiplicity adjusted p values for each comparison. All the statistical analyses were done by Prism 6 (GraphPad Software, La Jolla, CA). A p-value ≤ 0.05 among treatment groups was considered significant.

[2] = as above; assay type: in vitro ADME; conditions: human, intracellular EVG in U1 cells
Description: as §2, §3, §4, §5

[3] = set-up: method as in PMID 10817729; conditions: ethanol 0.7 g/kg with 600 mg of abacavir, 25 male HIV-infected individuals; cited from earlier work
U1 cells [4] = test: Intracellular elvitegravir concentration in the presence of MRP1 or MDR1 inhibitors and cobicistat + ethanol; assay type: in vitro ADME; conditions: cells co-treated with EVG+COBI+ethanol (control), 24 hours
Description: as §3

Row | Compound | change in MRP1 expression compared to control (in words) (MRP1) | MRP1 fluorescence signal intensity, mean (Fig 3B) (MRP1) [%] | change in MDR1 expression compared to control (in words) (MDR1) | MDR1 fluorescence signal intensity, mean (Fig 3C) (MDR1) [%] | HIV p24 level in culture media, mean (Fig 2) (HIV-1 replication) [%] | change in CYP3A4 expression compared to control (in words) (CYP3A4) | CYP3A4 fluorescence signal intensity, mean (Fig 3A) (CYP3A4) [%] | effect on HIV p24 levels compared to control (in words) (HIV-1 replication; U1 cells) | HIV p24 level in culture media, mean (Fig 5) (HIV-1 replication) [%] | also measured
1 | COc1cc2c(cc1Cc1cccc(Cl)c1F)c(=O)c(C(=O)O)cn2[C@H](CO)C(C)C [EVG, elvitegravir] | no effect | 100 | no influence | 91.21 | 70.3 | no change | 104.7 |  |  | reduction of HIV p24 levels (HIV-1 replication; U1 cells, compared to vehicle): 30%; cellular EVG concentration, mean (U1 cells [1]; 0.5 hours): 41.39 μM/mg of protein; cellular EVG concentration, mean (U1 cells [1]; 1 hour): 51.13 μM/mg of protein; cellular EVG concentration, mean (U1 cells [1]; 3 hours): 59.00 μM/mg of protein; cellular EVG concentration, mean (U1 cells [1]; 6 hours): 66.27 μM/mg of protein; cellular EVG concentration, mean (U1 cells [1]; 12 hours): 78.01 μM/mg of protein; cellular EVG concentration, mean (U1 cells [1]; 24 hours): 72.02 μM/mg of protein; AUCtot (U1 cells [1]; intracellular EVG in PMA-differentiated U1 cells, 0 to 24 hours, EVG 5 μM, COBI 2 μM, ethanol 20 mM, mean ± SEM): 1733 ± 122 μMXh/mg; mean exposure (AUCtot) (U1 cells [1]; intracellular EVG in U1 cells): 1733 ± 122 µM·h/mg; Cmax at 5 μM ([2]; EVG 5 μM, COBI 2 μM, ethanol 20 mM, mean ± SEM): 82 ± 4 µM; Tmax at 5 μM ([2]; median (range)): 12 h
2 | Nc1nc(NC2CC2)c2ncn([C@H]3C=C[C@@H](CO)C3)c2n1 [abacavir] |  |  |  |  |  |  |  |  |  | increase in half-life with ethanol consumption [3]: 26%; increase in maximum concentration with ethanol consumption [3]: 15%; increase in total exposure with ethanol consumption [3]: 41%
3 | C/C=C/C[C@@H](C)C(=O)[C@H]1C(=O)N[C@@H](C(C)C)C(=O)N(C)CC(=O)N(C)[C@@H](CC(C)C)C(=O)N[C@@H](C(C)C)C(=O)N(C)[C@@H](CC(C)C)C(=O)N[C@@H](C)C(=O)N[C@H](C)C(=O)N(C)[C@@H](CC(C)C)C(=O)N(C)[C@@H](CC(C)C)C(=O)N(C)[C@@H](C(C)C)C(=O)N1C [PSC-833] |  |  |  |  |  |  |  | did not show any effect | 98.57 | effect on intracellular EVG concentration (in words) (U1 cells [4]): no significant effect
4 | CN(C)C(=O)CCSC(SCCC(=O)O)c1cccc(/C=C/c2ccc3ccc(Cl)cc3n2)c1 (centres unmarked) [MK-571] |  |  |  |  |  |  |  | did not show any effect | 104.1 | 
5 | CCO [EtOH, ethanol] | upregulated | 167.2 | significant induction | 128 | 135.4 | significant induction | 167.5 |  | 135.4 | increase in HIV p24 levels compared to vehicle control (HIV-1 replication; U1 cells): 35%

— publication PMC5322882, “Alterations in cellular pharmacokinetics and pharmacodynamics of elvitegravir in response to ethanol exposure in HIV-1 infected monocytic (U1) cells” (PLoS ONE, 2017)
